Series [1] in a line: Measurement of log P values by HPLC on reversed phase columns (EEC directive 79/831 Annex V.A8). Conditions: for chromatographic logP: pH 2.7; for LogP: method [a], HPLC on reversed phase columns.
For another series, the system named is Plasmopara viticola. Description: Plasmopara test (grapevines)/preventive. Format: in vivo. Conditions: preventive spray, 10 ppm of active ingredient, evaluated 6 days after inoculation. In a few lines:
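Young grapevines sprayed preventively with compound formulated in acetone/dimethylacetamide with emulsifier, diluted in water, then inoculated with P. viticola spores after drying. Held 1 day at ~20 °C/100% RH, 4 days in greenhouse at ~21 °C/~90% RH, then misted for 1 day. Efficacy scored 6 days post-inoculation (0% = untreated control, 100% = no disease).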

The subject of series [2] is Phytophthora infestans. It counts as in vivo. Conditions: tomato, preventive spray, 100 ppm of active ingredient, evaluated 7 days after inoculation.
Series [3] has as its system Phytophthora infestans. Format: in vivo. Conditions: tomato plants, spray, 500 ppm, grading 5 days after contamination.
For series [4], the system named is Mycosphaerella graminicola. Description: In vivo test on Mycosphaerella graminicola (wheat leaf spot). Conditions: wheat plants, spray, 500 ppm, grading 21 to 28 days after contamination. On the procedure:
The active ingredients tested are prepared by homogenization in a mixture of acetone/tween/DMSO, then diluted with water to obtain the desired active material concentration.
Wheat plants (Scipion variety), sown on a 50/50 peat soil-pozzolana substrate in starter cups and grown at 22° C. (12 h)/20° C. (12 h), are treated at the 1-leaf stage (10 cm tall) by spraying with the aqueous suspension described above. Plants, used as controls, are treated with an aqueous solution not containing the active material.
After 24 hours, the plants are contaminated by spraying them with an aqueous suspension of cryopreserved Mycosphaerella graminicola spores (500.000 spores per ml). The contaminated wheat plants are incubated for 72 hours at 18° C. and at 100% relative humidity, and then for 21 to 28 days at 90% relative humidity.
Grading (% of efficacy) is carried out 21 to 28 days after the contamination, in comparison with the control plants.
(§1) Under these conditions, good (at least 70%) or total protection is observed at a dose of 500 ppm with the following compounds: […]

For series [5] the following is noted: pH 2.7.
In another series the test system is Puccinia recondita. The series is described as follows: In vivo test on Puccinia recondita (brown rust). Conditions: wheat plants, spray, 500 ppm, grading 10 days after contamination. How it is done:
The active ingredients tested are prepared by homogenization in a mixture of acetone/tween/DMSO, then diluted with water to obtain the desired active material.
Wheat plants (Scipion variety) sown on 50/50 peat soil-pozzolana substrate in starter cups and grown at 22° C. (12 h)/20° C. (12 h), are treated at the 1-leaf stage (10 cm tall) by spraying with the aqueous suspension described above.
Plants, used as controls, are treated with an aqueous solution not containing the active material. After 24 hours, the plants are contaminated by spraying the leaves with an aqueous suspension of Puccinia recondite spores (100.000 spores per ml). The spores are collected from a 10-day-old contaminated wheat and are suspended in water containing 2.5 ml/l of tween 80 10%. The contaminated wheat plants are incubated for 24 hours at 20° C. and at 100% relative humidity, and then for 10 days at 20° C. and at 70% relative humidity. Grading is carried out 10 days after the contamination, in comparison with the control plants.
as §1

The term chromatographic logP denotes lipophilicity estimated from chromatographic retention. What is called LogP is the decadic logarithm of the partition coefficient of the neutral form, usually between octanol and water.

Where two headings read alike, the source gives them in different places. Marks after values point to notes of the source that are not given here.

The compound `Cn1c(/C(=N\OCc2cccc(N)n2)c2ccccc2)noc1=O` [Example 1, 3-[(Z)-{[(6-aminopyridin-2-yl)methoxy]imino}(phenyl)methyl]-4-methyl-1,2,4-oxadiazol-5(4H)-one] registered a chromatographic logP in series [1] of 1.14.
In the case of `Cn1c(/C(=N\OCc2csc(N)n2)c2ccccc2)noc1=O` [Example 4, 3-[(Z)-{[(2-amino-1,3-thiazol-4-yl)methoxy]imino}(phenyl)methyl]-4-methyl-1,2,4-oxadiazol-5(4H)-one], the chromatographic logP in series [1] was determined as 1.54.
Regarding `C=CCCCOC(=O)Nc1cccc(CO/N=C(/c2ccccc2)c2noc(=O)n2C)n1` [Example 6], the LogP in series [1] is 4.06 [a]. Also, the Eff. % in the series with Plasmopara viticola is on record as 100%; in the series with Phytophthora infestans [2] it was 98%.
As to `CCCCOC(=O)Nc1nc(CO/N=C(/c2ccccc2)c2noc(=O)n2C)cs1` [Example 14, butyl {4-[({[(Z)-(4-methyl-5-oxo-4,5-dihydro-1,2,4-oxadiazol-3-yl)(phenyl)methylene]amino}oxy)methyl]-1,3-thiazol-2-yl}carbamate], the chromatographic logP in series [1] stood at 3.73. In addition, the Eff. % with Plasmopara viticola amounted to 96%; with Phytophthora infestans [2] it was 95%.
For `CCCCOC(=O)Nc1cccc(CO/N=C(/c2ccccc2)c2noc(=O)n2C)n1` [Example 18, butyl {6-[({[(Z)-(4-methyl-5-oxo-4,5-dihydro-1,2,4-oxadiazol-3-yl)(phenyl)methylene]amino}oxy)methyl]pyridin-2-yl}carbamate], in that order: 4.04, 100% and 95%.
With `CC(Oc1ccccc1)C(=O)Nc1nc(CO/N=C(/c2ccccc2)c2noc(=O)n2C)cs1` (stereo not drawn) [Example 19], in series [1], the LogP was 3.71 [a]. Moreover, the Eff. % worked out at 97% in the series with Plasmopara viticola and 95% with Phytophthora infestans [2].
Regarding `Cn1c(/C(=N\OCc2cccc(NC(=O)OC(C)(C)C)n2)c2ccccc2)noc1=O` [Example 21, tert-butyl {6-[({[(Z)-(4-methyl-5-oxo-4,5-dihydro-1,2,4-oxadiazol-3-yl)(phenyl)methylene]amino}oxy)methyl]pyridin-2-yl}carbamate], the chromatographic logP in series [1] came to 3.96. The Eff. % came to 100% with Plasmopara viticola and 97% with Phytophthora infestans [2].
The compound `Nc1cccc(CO/N=C(/c2ccccc2)c2noc(=O)[nH]2)n1` [Example 23, 3-[(Z)-{[(6-aminopyridin-2-yl)methoxy]imino}(phenyl)methyl]-1,2,4-oxadiazol-5(4H)-one] returned a chromatographic logP in series [1] of 1.36.
The same measure, in the same setting: to `Nc1nc(CO/N=C(/c2ccccc2)c2noc(=O)[nH]2)cs1` [Example 24, 3-[(Z)-{[(2-amino-1,3-thiazol-4-yl)methoxy]imino}(phenyl)methyl]-1,2,4-oxadiazol-5(4H)-one] belongs 1.58; to `Cn1c(/C(=N/OCc2cccc(N)n2)c2ccccc2)noc1=O` [Example 25, 3-[(E)-{[(6-aminopyridin-2-yl)methoxy]imino}(phenyl)methyl]-4-methyl-1,2,4-oxadiazol-5(4H)-one], 1.14.
On to `C#CCCCCC(=O)Nc1cccc(CO/N=C(/c2ccccc2)c2noc(=O)n2C)n1` [Example 37], for which the LogP in series [1] is 3.37 [a]. Also, the Eff. % with Plasmopara viticola came out at 80%; with Phytophthora infestans [3], 100%.
Regarding `Cn1c(/C(=N\OCc2cccc(NC(=O)C3(C)CCCCC3)n2)c2ccccc2)noc1=O` [Example 40], the LogP in series [1] is 4.36 [a]. The compound further returned an Eff. % with Phytophthora infestans [3] of 100%.
As to `COc1cccc(C(=O)Nc2cccc(CO/N=C(/c3ccccc3)c3noc(=O)n3C)n2)c1` [Example 44], in series [1], the LogP was 3.62 [a]. In addition, the Eff. % was 98% in the series with Plasmopara viticola and 100% in the series with Phytophthora infestans [3].
`Cn1c(/C(=N\OCc2cccc(NC(=O)C(c3ccccc3)c3ccccc3)n2)c2ccccc2)noc1=O` [Example 46]: the LogP in series [1] is 4.48 [a].
For `CCn1c(/C(=N\OCc2cccc(NC(=O)C3COc4ccccc4O3)n2)c2ccccc2)noc1=O` (stereo not drawn) [Example 130], the Eff. % in series [4] was 86%; in the series on Phytophthora infestans [3] it was 100%. Moreover, in series [5], the LogP was 4.14 [a].
For `COc1cccc(CCOC(=O)Nc2cccc(CO/N=C(/c3ccccc3)c3noc(=O)n3C)n2)c1` [Example 151], in that order: 92%, 85% and 4.11 [a].
As to `Cn1c(/C(=N\OCc2csc(NC(=O)c3ccccc3I)n2)c2ccccc2)noc1=O` [Example 158], the results for the Eff. % (in series [4]; in the series on Phytophthora infestans [3]) were 80% and 85%, respectively. The LogP in series [5] is 3.6 [a].
As to `CCCC(C)C(=O)Nc1cccc(CO/N=C(/c2ccccc2)c2noc(=O)n2CC)n1` (stereo not drawn) [Example 172], the Eff. % in series [4] amounted to 86%; in the series with Phytophthora infestans [3], 100%; in the series with Puccinia recondita it was 89%. The LogP in series [5] is 4.06 [a].
Turning to `Cn1c(/C(=N\OCc2cccc(NC(=O)CC(C)(C)C)n2)c2ccccc2)noc1=O` [Example 173], the Eff. % was 73% in series [4], 86% in the series with Plasmopara viticola, 100% in the series with Phytophthora infestans [3] and 89% with Puccinia recondita. Moreover, the LogP in series [5] was 3.78 [a].
Regarding `C#CCCC(C)OC(=O)Nc1cccc(CO/N=C(/c2ccccc2)c2noc(=O)n2CC)n1` (stereo not drawn) [Example 207], the Eff. % in series [4] is 79%; in the series on Phytophthora infestans [3] it was 100%. Further, the LogP in series [5] is 4.04 [a].
`CCCC(C)C(=O)Nc1cccc(CON=C(c2ccccc2)c2noc(=O)n2C)n1` (stereo not drawn) [Example 248]: the Eff. % in series [4] is reported as 86%; with Plasmopara viticola it was 85%; in the series with Phytophthora infestans [3], 100%. Further, the LogP in series [5] is 3.8 [a].
`Cn1c(/C(=N\OCc2cccc(NCCC3CCCCC3)n2)c2ccccc2)noc1=O` [Example 253, 3-[(Z)-[({6-[(2-cyclohexylethyl)amino]pyridin-2-yl}methoxy)imino](phenyl)methyl]-4-methyl-1,2,4-oxadiazol-5(4H)-one] displayed a chromatographic logP in series [1] of 2.96.
As for `CCn1c(C(=NOCc2cccc(NC(=O)OCCc3ccccc3)n2)c2ccccc2)noc1=O` [Example 270], the values for the Eff. % (in series [4]; in the series with Phytophthora infestans [3]) were 86% and 100%, respectively. Besides, the LogP in series [5] was 4.41 [a].
`Cn1c(/C(=N\OCc2cccc(N(CCC3CCCCC3)C(=O)OC(C)(C)C)n2)c2ccccc2)noc1=O` [Example 279, tert-butyl (2-cyclohexylethyl){6-[({[(Z)-(4-methyl-5-oxo-4,5-dihydro-1,2,4-oxadiazol-3-yl)(phenyl)methylene]amino}oxy)methyl]pyridin-2-yl}carbamate] returned a chromatographic logP in series [1] of 6.73.
Regarding `Cn1c(/C(=N\OCc2cccc(NC(=O)Cc3ccccc3)n2)c2ccccc2)noc1=O` [Example 341], the Eff. % turned out to be 70% in series [4] and 100% in the series on Phytophthora infestans [3]. Moreover, the LogP in series [5] was 3.53 [a].
Regarding `CCCCC(=O)Nc1cccc(CO/N=C(/c2cccc(C)c2)c2noc(=O)n2C)n1` [Example 384], the Eff. % in series [4] came to 70%; with Phytophthora infestans [3] it was 100%; with Puccinia recondita it was 79%. In series [5], the LogP was 3.83 [a].
With `NC(=N\O)/C(=N\OCc1csc(N)n1)c1ccccc1` [Example V-2, (1Z,2Z)-2-{[(2-amino-1,3-thiazol-4-yl)methoxy]imino}-N′-hydroxy-2-phenylethanimidamide], in series [1], the chromatographic logP came to 0.43.
In series [1], `N/C(=N\O)C(=NOCc1cccc(N)n1)c1ccccc1` [Example V-3, (Z)-2-{[(6-aminopyridin-2-yl)methoxy]imino}-N′-hydroxy-2-phenylethanimidamide] gave a chromatographic logP of 0.41.
In the case of `Cn1c(C(=O)c2ccccc2)noc1=O` [VII-1, 3-benzoyl-4-methyl-1,2,4-oxadiazol-5(4H)-one], the chromatographic logP in series [1] was 3.21.

The values above are taken from patent US9090600B2, “Fungicidal 4-substituted-3-{phenyl[(heterocyclylmethoxy)imino]methyl}-1,2,4-oxadizol-5(4H)-one derivatives” (BAYER INTELLECTUAL PROPERTY GMBH, priority 2011, dated 2015).
